The source of these data is DBAASP.

Some test systems named below: Escherichia coli O157:H7; Escherichia coli MC1061; Escherichia coli JJ2487; Escherichia coli JW0013; Escherichia coli J2210; Escherichia coli UB1005; Escherichia coli BW25113; Escherichia coli MC1041; Escherichia coli; Escherichia coli JJ2489.
What all share (assay): ≥ marks a high value that may be exact or a test limit, other limits are often not marked, values filed in µg/mL are converted to µM
Assay [1] relates to Salmonella enterica MTCC 9844.
Assay [2] deals with Bordetella bronchiseptica MTCC 6837.
Assay [3] concerns Proteus vulgaris MTCC 1771.
Assay [4] relates to Shigella flexneri MTCC 1457.
For assay [5], the system named is Alcaligenes faecalis MTCC 1937.
In assay [6] the test system is Staphylococcus aureus MTCC 3160.
The subject of assay [7] is Shigella boydii MTCC 11947.
Assay [8] has as its system Alkalihalobacillus alcalophilus MTCC 860.
Assay [9] relates to Salmonella enterica subsp. enterica serovar Typhimurium ATCC 14028.
Assay [10] has as its system Stenotrophomonas maltophilia MTCC 1890.
The test system of assay [11] is Haemophilus influenzae MTCC 621.
For assay [12], the system named is Pseudomonas aeruginosa MTCC 3542.
Assay [13] deals with Klebsiella aerogenes MTCC 111.
Assay [14] deals with Staphylococcus haemolyticus MTCC 3383.
The subject of assay [15] is Acinetobacter baumannii MTCC 9829.
In assay [16] the test system is Pluralibacter gergoviae MTCC 3826.
Assay [17] concerns Vibrio cholerae MTCC 3904.
The test system of assay [18] is Enterococcus faecalis MTCC 439.
Assay [19] concerns Citrobacter freundii MTCC 1658.
Assay [20] concerns Proteus mirabilis MTCC 3158.
Assay [21] deals with Klebsiella pneumoniae MTCC 7407.
Assay [22] concerns Klebsiella oxytoca MTCC 2275.
In assay [23] the test system is Corynebacterium glutamicum MTCC 2679.
Assay [24] relates to Citrobacter koseri MTCC 1657.
For assay [25], the system named is Escherichia coli K12 MG1655.
The subject of assay [26] is Pseudomonas aeruginosa ATCC 15692.
Assay [27] relates to Staphylococcus aureus ATCC 25923.
For assay [28], the system named is Listeria monocytogenes KCTC 19111.
In assay [29] the test system is Salmonella typhimurium KCTC 1926.
Assay [30] concerns Escherichia coli ATCC 25922.
For assay [31], the system named is Staphylococcus epidermidis KCTC 1917.
The test system of assay [32] is Salmonella typhimurium SL1344.
The subject of assay [33] is Pseudomonas aeruginosa PAO1.
Assay [34] has as its system Salmonella enterica subsp. enterica serovar Enteritidis MH91989.
The subject of assay [35] is Salmonella enterica subsp. enterica serovar Infantis.
In assay [36] the test system is Escherichia coli JW0368 ΔsbmA.
For assay [37], the system named is Salmonella enterica subsp. enterica serovar Newport.
The test system of assay [38] is Escherichia coli JW2778 ΔygdD.
Assay [39] deals with Salmonella enterica serovar Tennessee.

≈ marks a conversion by molar mass, not a printed value. Where “and” joins values, the source holds several entries; their conditions need not be identical. Identical values can stand only once.

As to `CSCC[C@H](NC(=O)[C@H](CCCN=C(N)N)NC(=O)[C@H](Cc1cnc[nH]1)NC(=O)[C@H](Cc1c[nH]c2ccccc12)NC(=O)[C@H](CCCN=C(N)N)NC(=O)CNC(=O)[C@H](Cc1c[nH]c2ccccc12)NC(=O)[C@H](CCCN=C(N)N)NC(=O)[C@@H](N)CCCN=C(N)N)C(=O)N[C@@H](CCCN=C(N)N)C(=O)N[C@@H](CCCN=C(N)N)C(=O)N[C@@H](CCCN=C(N)N)C(=O)NCC(=O)N[C@@H](CCCN=C(N)N)C(=O)O` [RRWGRWHRMRRRGR], the MIC in assay [1] was not below 63.3 µM; in [2], not below 63.3 µM; in assay [3] it was not below 63.3 µM; in assay [4], 31.6 µM (≈ 64 µg/mL); in assay [5] it was not below 63.3 µM; in assay [6], not below 63.3 µM. The MIC in assay [7] was 31.6 µM (≈ 64 µg/mL); in assay [8], 15.8 µM (≈ 32 µg/mL); in assay [9], more than 63.3 µM; in assay [10], not below 63.3 µM; in assay [11], not below 63.3 µM; in [12] it was not below 63.3 µM. Also, the MIC in assay [13] is not below 63.3 µM; in assay [14], 1.98 µM (≈ 4 µg/mL); in assay [15], not below 63.3 µM; in assay [16], not below 63.3 µM; in assay [17], not below 63.3 µM; in assay [18], not below 63.3 µM. The MIC in assay [19] is not below 63.3 µM; in assay [20], not below 63.3 µM; in assay [21], not below 63.3 µM; in [22] it was 31.6 µM (≈ 64 µg/mL); in [23], 1.98 µM (≈ 4 µg/mL); in [24], 7.91 µM (≈ 16 µg/mL). This molecule gave an MIC in assay [25] not below 63.3 µM.
With `NCCCC[C@H](NC(=O)[C@H](Cc1ccc(O)cc1)NC(=O)[C@H](Cc1c[nH]c2ccccc12)NC(=O)[C@H](CCCCN)NC(=O)[C@H](CCCCN)NC(=O)[C@H](Cc1ccc(O)cc1)NC(=O)[C@H](Cc1c[nH]c2ccccc12)NC(=O)[C@@H](N)CCCCN)C(N)=O` [KWYKKWYK], the MIC in assay [26] turned out to be 8 µM (≈ 9.83 µg/mL); in assay [27] it was 64 µM (≈ 78.6 µg/mL); in assay [28], 8 µM (≈ 9.83 µg/mL); in [29], 8 µM (≈ 9.83 µg/mL); in [30], 4 µM (≈ 4.91 µg/mL); in assay [31] it was 8 µM (≈ 9.83 µg/mL).
Turning to `CC[C@H](C)[C@H](NC(=O)[C@H](CCCN=C(N)N)NC(=O)[C@H](CCCN=C(N)N)NC(=O)[C@@H]1CCCN1C(=O)[C@@H]1CCCN1C(=O)[C@H](CCCN=C(N)N)NC(=O)[C@@H]1CCCN1C(=O)[C@H](CCCN=C(N)N)NC(=O)[C@@H]1CCCN1C(=O)[C@H](CC(C)C)NC(=O)[C@H](Cc1ccc(O)cc1)NC(=O)[C@@H]1CCCN1C(=O)[C@H](CCCCN)NC(=O)[C@H](CCCCN)NC(=O)[C@H](CC(=O)O)NC(=O)[C@@H](N)C(C)C)C(=O)N[C@@H](Cc1ccc(O)cc1)C(=O)N[C@@H](CC(N)=O)C(=O)N[C@@H](CCCN=C(N)N)C(N)=O` [VDKKPYLPRPRPPRRIYNR], the MIC in [32] is 0.248 µM (≈ 0.6 µg/mL); against Escherichia coli O157:H7, 0.991 µM (≈ 2.4 µg/mL); in [27] it was 9.34 µM (≈ 22.6 µg/mL); against Escherichia coli MC1061 it was 0.124 µM (≈ 0.3 µg/mL); in the assay with Escherichia coli JJ2487 it was 0.248 µM (≈ 0.6 µg/mL); against Escherichia coli JW0013 it was 0.248 µM (≈ 0.6 µg/mL). The MIC in assay [33] came to 13.2 µM (≈ 32 µg/mL); in [34], 0.248 µM (≈ 0.6 µg/mL); in the assay with Escherichia coli J2210 it was 0.161 µM (≈ 0.39 µg/mL); against Escherichia coli UB1005, 1.03 µM (≈ 2.5 µg/mL).
As to `CC[C@H](C)[C@H](NC(=O)[C@@H]1CCCN1C(=O)[C@H](CCCCN)NC(=O)[C@@H]1CCCN1C(=O)[C@@H]1CCCN1C(=O)[C@@H](NC(=O)[C@@H]1CCCN1C(=O)[C@H](CCCN=C(N)N)NC(=O)[C@@H]1CCCN1C(=O)[C@H](CCCCN)NC(=O)[C@H](Cc1ccc(O)cc1)NC(=O)[C@H](CO)NC(=O)CNC(=O)[C@H](CCCCN)NC(=O)[C@H](CC(=O)O)NC(=O)[C@@H](N)C(C)C)[C@@H](C)O)C(=O)N[C@@H](Cc1ccc(O)cc1)C(=O)N[C@@H](CC(N)=O)C(=O)N[C@@H](CCCN=C(N)N)C(=O)N[C@@H](CC(N)=O)C(=O)O` [VDKGSYKPRPTPPKPIYNRN], the MIC in assay [32] is 0.15 µM (≈ 0.349 µg/mL); in [35] it was 0.3 µM (≈ 0.698 µg/mL); in assay [36] it was 0.834 µM (≈ 1.94 µg/mL); against Escherichia coli BW25113, 0.075 µM (≈ 0.175 µg/mL); with Escherichia coli MC1041, 0.15 µM (≈ 0.349 µg/mL); with Escherichia coli it was 0.197 µM and 0.3 µM. In addition, the MIC in [37] worked out at 0.075 µM (≈ 0.175 µg/mL); against Escherichia coli JJ2489 it was 0.104 µM (≈ 0.242 µg/mL); against Escherichia coli JW0013, 0.075 µM (≈ 0.175 µg/mL); in [38], 0.208 µM (≈ 0.484 µg/mL); in [39] it was 0.3 µM (≈ 0.698 µg/mL); in assay [34] it was 0.6 µM (≈ 1.4 µg/mL). In addition, the MIC in the assay with Escherichia coli J2210 stood at 0.208 µM (≈ 0.484 µg/mL).
